Data published in PubChem BioAssay (NCI).
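These data come from cells grown in 96-well plates and exposed to compound for 48 hours at five concentrations. GI50 marks 50% less growth. TGI: total growth inhibition.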

Experiments:
Assay in all cases: NCI-60 cell line screen, 48 h; in the data active means GI50 below about 0.43 µM; inactive means the rest
[1] = test system: 786-0 renal
[2] = test system: A498 renal
[3] = test system: A549 NSCLC
[4] = test system: ACHN renal
[5] = test system: BT-549 breast
[6] = test system: CAKI-1 renal
[7] = test system: CCRF-CEM leukemia
[8] = test system: COLO 205 colon
[9] = test system: DU-145 prostate
[10] = test system: EKVX NSCLC
[11] = test system: HCC-2998 colon
[12] = test system: HCT-116 colon
[13] = test system: HCT-15 colon
[14] = test system: HOP-62 NSCLC
[15] = test system: HOP-92 NSCLC
[16] = test system: HS 578T breast
[17] = test system: HT29 colon
[18] = test system: IGROV1 ovarian
[19] = test system: K-562 leukemia
[20] = test system: KM12 colon
[21] = test system: LOX IMVI melanoma
[22] = test system: M14 melanoma
[23] = test system: MCF7 breast
[24] = test system: MDA-MB-231 breast
[25] = test system: MDA-MB-435
[26] = test system: MOLT-4 leukemia
[27] = test system: NCI-H23 lung
[28] = test system: NCI-H522 lung
[29] = test system: NCI/ADR-RES ovarian
[30] = test system: OVCAR-3 ovarian
[31] = test system: OVCAR-4 ovarian
[32] = test system: OVCAR-5 ovarian
[33] = test system: OVCAR-8 ovarian
[34] = test system: PC-3 prostate
[35] = test system: RPMI-8226 leukemia
[36] = test system: RXF 393 renal
[37] = test system: SF-268 CNS
[38] = test system: SF-295 CNS
[39] = test system: SF-539 CNS
[40] = test system: SK-MEL-2 melanoma
[41] = test system: SK-MEL-28 melanoma
[42] = test system: SK-MEL-5 melanoma
[43] = test system: SK-OV-3 ovarian
[44] = test system: SN12C renal
[45] = test system: SNB-19 CNS
[46] = test system: SNB-75 CNS
[47] = test system: SR leukemia
[48] = test system: SW-620 colon
[49] = test system: T-47D breast
[50] = test system: TK-10 renal
[51] = test system: U251 CNS
[52] = test system: UACC-257 melanoma
[53] = test system: UACC-62 melanoma
[54] = test system: UO-31 renal
[55] = test system: HL-60(TB) leukemia
[56] = test system: NCI-H226 lung
[57] = test system: NCI-H460 lung

O=c1nc(Oc2c(F)c(F)c(F)c(F)c2F)ccn1C1OC(CO)C(O)C1O (configuration not stated)
> 100000 nM: TGI [25]
> 100 µM: TGI [1] | TGI [2] | TGI [3] | TGI [4] | TGI [5] | TGI [6] | TGI [7] | TGI [8] | TGI [9] | TGI [10] | TGI [11] | TGI [12] | TGI [13] | TGI [14] | TGI [15] | TGI [16] | TGI [17] | TGI [18] | TGI [19] | TGI [20] | TGI [21] | TGI [22] | TGI [23] | TGI [24] | TGI [26] | TGI [27] | TGI [28] | TGI [29] | TGI [30] | TGI [31] | TGI [32] | TGI [33] | TGI [34] | TGI [35] | TGI [36] | TGI [37] | TGI [38] | TGI [39] | TGI [40] | TGI [41] | TGI [42] | TGI [43] | TGI [44] | TGI [45] | TGI [46] | TGI [47] | TGI [48] | TGI [49] | TGI [50] | TGI [51] | TGI [52] | TGI [53] | TGI [54]

Cc1cccc(NC(=O)c2sc3nc4c(cc3c2N)CCCC4)c1
inactive: GI50 [1] 4.13 µM | GI50 [2] 5.87 µM | GI50 [3] 8.33 µM | GI50 [4] 10.5 µM | GI50 [5] 7.56 µM | GI50 [6] 6.7 µM | GI50 [7] 4.46 µM | GI50 [8] 4.96 µM | GI50 [9] 13.4 µM | GI50 [11] 45.4 µM | GI50 [12] 2590 nM | GI50 [13] 845 nM | GI50 [55] 2360 nM | GI50 [14] 4.97 µM | GI50 [15] 9 µM | GI50 [16] 9.92 µM | GI50 [18] 17.7 µM | GI50 [20] 3.32 µM | GI50 [21] 8.52 µM | GI50 [22] 2000 nM | GI50 [23] 1150 nM | GI50 [24] 14.8 µM | GI50 [26] 12 µM | GI50 [56] 9.68 µM | GI50 [27] 27.8 µM | GI50 [57] 5.25 µM | GI50 [28] 16.4 µM | GI50 [29] 4.59 µM | GI50 [30] 4.84 µM | GI50 [31] 3.22 µM | GI50 [32] > 100 µM | GI50 [33] 20.9 µM | GI50 [34] 16.2 µM | GI50 [35] 5.74 µM | GI50 [36] 4.71 µM | GI50 [37] 10.7 µM | GI50 [38] 3.51 µM | GI50 [39] 4.74 µM | GI50 [40] 8.99 µM | GI50 [41] 9.23 µM | GI50 [42] 2300 nM | GI50 [43] 12.9 µM | GI50 [44] 24 µM | GI50 [45] 6.92 µM | GI50 [46] 3.84 µM | GI50 [47] 549 nM | GI50 [48] 3.42 µM | GI50 [49] 10.2 µM | GI50 [50] 13.7 µM | GI50 [51] 8.33 µM | GI50 [52] > 100 µM | GI50 [53] 2190 nM | GI50 [54] 25.2 µM
18.9 µM: TGI [46]
> 100 µM: TGI [3] | TGI [4] | TGI [6] | TGI [7] | TGI [8] | TGI [9] | TGI [11] | TGI [12] | TGI [13] | TGI [16] | TGI [18] | TGI [20] | TGI [21] | TGI [22] | TGI [23] | TGI [26] | TGI [27] | TGI [57] | TGI [28] | TGI [29] | TGI [30] | TGI [32] | TGI [33] | TGI [34] | TGI [35] | TGI [37] | TGI [41] | TGI [44] | TGI [48] | TGI [49] | TGI [52] | TGI [53] | TGI [54]
32.4 µM: TGI [1]
2000 nM: TGI [25]
52.5 µM: TGI [40]
36.8 µM: TGI [14]
47.3 µM: TGI [42]
23.2 µM: TGI [36]
45.2 µM: TGI [51]
73.5 µM: TGI [56]
17.7 µM: TGI [55]
68 µM: TGI [45]
60.5 µM: TGI [39]
62 µM: TGI [5]
11.2 µM: TGI [47]
52.2 µM: TGI [24]
23.8 µM: TGI [38]
90.6 µM: TGI [50]
66.4 µM: TGI [2]
active: GI50 [25] 305 nM
39.1 µM: TGI [31]
63.9 µM: TGI [43]
32 µM: TGI [15]
